According to ChEMBL document CHEMBL4196232, “A Series of Indole-Thiazole Derivatives Act as GPER Agonists and Inhibit Breast Cancer Cell Growth” (ACS Med Chem Lett, 2018):
Activity calls are given as the source filed them. No cut-off for these calls is given here.

How the values were obtained:
[1] = target: T1, Estrogen receptor (Homo sapiens) (UniProt P03372); assay: Displacement of fluoromone from recombinant human full length untagged estrogen receptor alpha expressed in insect cells at
T1 sequence (whole entry): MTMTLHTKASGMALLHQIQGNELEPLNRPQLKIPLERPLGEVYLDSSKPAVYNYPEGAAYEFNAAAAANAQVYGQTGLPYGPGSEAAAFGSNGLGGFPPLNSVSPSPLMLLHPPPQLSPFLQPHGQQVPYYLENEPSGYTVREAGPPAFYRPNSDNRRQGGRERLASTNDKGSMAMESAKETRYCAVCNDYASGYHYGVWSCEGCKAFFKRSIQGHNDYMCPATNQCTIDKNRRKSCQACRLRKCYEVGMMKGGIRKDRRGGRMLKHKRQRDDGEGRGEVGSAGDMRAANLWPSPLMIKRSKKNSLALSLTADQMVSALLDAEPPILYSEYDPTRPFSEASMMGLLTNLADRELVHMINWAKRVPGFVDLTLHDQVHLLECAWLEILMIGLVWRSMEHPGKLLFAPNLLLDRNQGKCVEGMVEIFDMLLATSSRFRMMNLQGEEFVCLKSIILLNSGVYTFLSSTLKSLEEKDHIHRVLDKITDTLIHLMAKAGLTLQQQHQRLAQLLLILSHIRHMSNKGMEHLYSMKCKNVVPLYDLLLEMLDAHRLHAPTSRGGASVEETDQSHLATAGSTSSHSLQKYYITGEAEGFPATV

SK-BR-3 [2] = assay: Cytotoxicity against human SKBR3 cells assessed as decrease in cell viability at 1 uM after 72 hrs in presence of GPER agonist E2 by MTS assay; format: functional, cell-based
SK-BR-3 [3] = assay: Cytotoxicity against human SKBR3 cells assessed as decrease in cell viability at 1 uM after 72 hrs in absence of GPER agonist E2 by MTS assay; format: functional, cell-based
[4] = target: Estrogen receptor beta (Homo sapiens) (UniProt Q92731); assay: Displacement of fluoromone from recombinant human full length untagged estrogen receptor beta expressed in insect cells at 1 uM after 2 hrs by fluorescence polarization assay
MCF7 = assay: Cytotoxicity against human MCF7 cells assessed as decrease in cell viability at 1 uM after 72 hrs in presence of GPER agonist E2 by MTS assay; format: functional, cell-based
MDA-MB-231 [5] = assay: Cytotoxicity against human MDA-MB-231 cells assessed as decrease in cell viability at 1 uM after 72 hrs in absence of GPER agonist E2 by MTS assay; format: functional, cell-based
[6] = target: T2, G-protein coupled estrogen receptor 1 (Homo sapiens, UniProt Q99527); assay: Agonist activity at GPER (unknown origin) expressed in human HL60 cells assessed as increase in cAMP accumulation in presence of IBMX after 15 mins by HTRF assay; format: functional, cell-based
[7] = target: T1, Estrogen receptor (Homo sapiens); assay: Displacement of fluoromone from recombinant human full length untagged estrogen receptor alpha expressed in insect cells at 1 uM after 2 hrs by fluorescence polarization assay
[8] = target: Estrogen receptor beta (Homo sapiens) (UniProt Q92731); assay: Displacement of fluoromone from recombinant human full length untagged estrogen receptor beta expressed in insect cells at
MDA-MB-231 [9] = assay: Cytotoxicity against human MDA-MB-231 cells assessed as decrease in cell viability at 1 uM after 72 hrs in presence of GPER agonist E2 by MTS assay; format: functional, cell-based
[10] = target: T2, G-protein coupled estrogen receptor 1; assay: Antagonist activity at GPER (unknown origin) expressed in human HL60 cells assessed as inhibition of G-1-induced cAMP accumulation preincubated for 20 mins followed by G-1 addition measured after 10 mins by HTRF assay; format: functional, cell-based
[11] = target: Estrogen receptor beta (Homo sapiens) (UniProt Q92731); assay: Displacement of fluoromone from recombinant human full length untagged estrogen receptor beta expressed in insect cells after 2 hrs by fluorescence polarization assay
HL-60 = assay: Decrease in cAMP accumulation in human HL60 cells harboring GPER siRNA at 100 nM after 48 hrs by HTRF assay; format: functional, cell-based

Sequence of Estrogen receptor beta (Homo sapiens) (Q92731 whole entry): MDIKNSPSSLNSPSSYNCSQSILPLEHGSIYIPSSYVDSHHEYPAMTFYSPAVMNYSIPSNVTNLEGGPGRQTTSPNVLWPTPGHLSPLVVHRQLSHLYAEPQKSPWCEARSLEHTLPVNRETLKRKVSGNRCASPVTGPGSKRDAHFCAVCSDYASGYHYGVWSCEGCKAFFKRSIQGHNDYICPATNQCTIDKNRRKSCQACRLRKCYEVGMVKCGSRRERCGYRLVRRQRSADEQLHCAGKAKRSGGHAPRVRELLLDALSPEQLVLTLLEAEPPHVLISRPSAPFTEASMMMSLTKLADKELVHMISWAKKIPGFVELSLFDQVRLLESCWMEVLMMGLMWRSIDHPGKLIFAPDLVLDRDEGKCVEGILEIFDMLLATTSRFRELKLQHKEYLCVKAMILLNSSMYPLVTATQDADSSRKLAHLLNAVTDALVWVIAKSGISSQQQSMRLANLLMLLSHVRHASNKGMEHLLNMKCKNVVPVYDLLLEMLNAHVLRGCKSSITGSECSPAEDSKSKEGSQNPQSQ
T2 sequence (Q99527 whole entry): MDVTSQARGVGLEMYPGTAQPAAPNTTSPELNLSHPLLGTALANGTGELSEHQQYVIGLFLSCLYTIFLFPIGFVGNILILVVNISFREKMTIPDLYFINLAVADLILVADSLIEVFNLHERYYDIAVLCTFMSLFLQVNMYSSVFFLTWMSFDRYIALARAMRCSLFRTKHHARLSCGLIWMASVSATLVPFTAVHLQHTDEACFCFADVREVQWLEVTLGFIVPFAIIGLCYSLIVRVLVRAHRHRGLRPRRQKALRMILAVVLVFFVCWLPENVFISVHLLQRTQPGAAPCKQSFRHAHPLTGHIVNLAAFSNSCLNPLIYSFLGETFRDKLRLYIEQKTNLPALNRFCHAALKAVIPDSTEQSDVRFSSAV

CCc1nc(NC(=O)c2[nH]c3ccc(Br)cc3c2Cl)sc1C
Activity [1]: inactive | Activity (SK-BR-3 [2]): inactive | Activity (SK-BR-3 [3]): inactive | Activity [4]: Active | Activity (MCF7): Active | Activity (MDA-MB-231 [5]): inactive | EC50 [6]: 480 nM | Activity [7]: Active | Activity [8]: inactive | Activity (MDA-MB-231 [9]): inactive

O=C(Nc1nc2c(s1)CCC2)c1cc2cc(Br)ccc2[nH]1
inhibition [10]: inactive | Activity [6]: inactive

O=C(Nc1ncc(Cc2ccc(F)cc2)s1)c1cc2cc(F)ccc2[nH]1
Activity (SK-BR-3 [2]): inactive | Activity (SK-BR-3 [3]): inactive | Activity [4]: Active | Activity (MDA-MB-231 [5]): inactive | inhibition [10]: inactive | EC50 [6]: 20 nM | Activity [7]: Active | Activity (MDA-MB-231 [9]): inactive

Brc1cc2c(cc1[C@@H]1Nc3ccccc3[C@@H]3C=CC[C@@H]31)OCO2
Activity (MCF7): Active | Activity (MDA-MB-231 [5]): inactive | Activity (MDA-MB-231 [9]): inactive

N#Cc1ccc(Cc2cnc(NC(=O)c3cc4cc(F)ccc4[nH]3)s2)cc1
inhibition [10]: inactive

COc1cc(OC)c2[nH]c(C(=O)Nc3ncc(Cc4ccccc4)s3)cc2c1
inhibition [10]: inactive

O=C(Nc1nc2c(s1)CCC2)c1cc2cc(F)ccc2[nH]1
inhibition [10]: inactive | Activity [6]: inactive

CSc1ncc(Cl)c(C(=O)Nc2ncc(Cc3ccc(F)cc3)s2)n1
inhibition [10]: inactive

CC(=O)c1ccc2c(c1)[C@@H]1C=CC[C@@H]1[C@H](c1cc3c(cc1Br)OCO3)N2
Activity [11]: inactive | Activity (SK-BR-3 [2]): Active | Activity (SK-BR-3 [3]): Active | Activity (HL-60): inactive | Activity (MCF7): Active | Activity (MDA-MB-231 [5]): Active | Activity (MDA-MB-231 [9]): Active

CC(C)c1csc(NC(=O)c2cc3c(Cl)cccc3[nH]2)n1
inhibition [10]: inactive | Activity [6]: inactive

O=C(Nc1ncc(Cc2ccc(F)cc2F)s1)c1[nH]c2ccccc2c1Cl
Activity [11]: inactive | Activity [1]: inactive | Activity (SK-BR-3 [2]): Active | Activity (SK-BR-3 [3]): Active | Activity (HL-60): inactive | Activity (MCF7): Active | Activity (MDA-MB-231 [5]): Active | EC50 [6]: 1620 nM | Activity [8]: inactive | Activity (MDA-MB-231 [9]): Active
